Data as given in PubChem BioAssay (NCI).
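Briefly, cells in 96-well plates were exposed to five compound concentrations for 48 h, and endpoints were estimated by linear interpolation. Here, GI50 denotes the concentration required for 50% inhibition of growth. TGI marks complete inhibition of growth.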

What was measured:
Assay in all cases: NCI-60 cell line screen, 48 h
[1] = test system: 786-0 renal
[2] = test system: A498 renal
[3] = test system: A549 NSCLC
[4] = test system: ACHN renal
[5] = test system: BT-549 breast
[6] = test system: CAKI-1 renal
[7] = test system: CCRF-CEM leukemia
[8] = test system: COLO 205 colon
[9] = test system: DU-145 prostate
[10] = test system: EKVX NSCLC
[11] = test system: HCC-2998 colon
[12] = test system: HCT-116 colon
[13] = test system: HCT-15 colon
[14] = test system: HL-60(TB) leukemia
[15] = test system: HOP-62 NSCLC
[16] = test system: HOP-92 NSCLC
[17] = test system: HS 578T breast
[18] = test system: HT29 colon
[19] = test system: IGROV1 ovarian
[20] = test system: K-562 leukemia
[21] = test system: KM12 colon
[22] = test system: LOX IMVI melanoma
[23] = test system: M14 melanoma
[24] = test system: MALME-3M melanoma
[25] = test system: MCF7 breast
[26] = test system: MDA-MB-231 breast
[27] = test system: MDA-MB-435
[28] = test system: MOLT-4 leukemia
[29] = test system: NCI-H226 lung
[30] = test system: NCI-H23 lung
[31] = test system: NCI-H460 lung
[32] = test system: NCI-H522 lung
[33] = test system: NCI/ADR-RES ovarian
[34] = test system: OVCAR-3 ovarian
[35] = test system: OVCAR-4 ovarian
[36] = test system: OVCAR-5 ovarian
[37] = test system: OVCAR-8 ovarian
[38] = test system: PC-3 prostate
[39] = test system: RPMI-8226 leukemia
[40] = test system: RXF 393 renal
[41] = test system: SF-268 CNS
[42] = test system: SF-295 CNS
[43] = test system: SF-539 CNS
[44] = test system: SK-MEL-2 melanoma
[45] = test system: SK-MEL-28 melanoma
[46] = test system: SK-MEL-5 melanoma
[47] = test system: SK-OV-3 ovarian
[48] = test system: SN12C renal
[49] = test system: SNB-19 CNS
[50] = test system: SNB-75 CNS
[51] = test system: SR leukemia
[52] = test system: SW-620 colon
[53] = test system: T-47D breast
[54] = test system: TK-10 renal
[55] = test system: U251 CNS
[56] = test system: UACC-257 melanoma
[57] = test system: UACC-62 melanoma
[58] = test system: UO-31 renal

## Cc1cc(C(=O)c2ccccc2)c(C)c2c1[nH]c1ccc(Cl)cc12
[1]
  GI50: 0.0629 µM
  TGI: 3.51 µM
[2]
  GI50: 0.0305 µM
  TGI: 0.282 µM
[3]
  GI50: 0.0834 µM
  TGI: > 100 µM
[4]
  GI50: 0.0669 µM
  TGI: 15.5 µM
[5]
  GI50: 0.0941 µM
  TGI: 3.56 µM
[6]
  GI50: 0.0521 µM
  TGI: 6.05 µM
[7]
  GI50: 0.046 µM
  TGI: > 100 µM
[8]
  GI50: 0.102 µM
  TGI: 1.36 µM
[9]
  GI50: 0.112 µM
  TGI: > 42.1 µM
[10]
  GI50: 0.126 µM
  TGI: > 100 µM
[11]
  GI50: 0.176 µM
  TGI: 8.14 µM
[12]
  GI50: 0.0437 µM
  TGI: 4.74 µM
[13]
  GI50: 0.0492 µM
  TGI: 5.1 µM
[14]
  GI50: 0.0398 µM
  TGI: 1.78 µM
[15]
  GI50: 0.067 µM
  TGI: 23 µM
[16]
  GI50: 1.71 µM
  TGI: 21.2 µM
[17]
  GI50: 0.0501 µM
  TGI: 27.8 µM
[18]
  GI50: 0.0393 µM
  TGI: 1.93 µM
[19]
  GI50: 0.0657 µM
  TGI: 15.7 µM
[20]
  GI50: 0.0348 µM
  TGI: > 100 µM
[21]
  GI50: 0.045 µM
  TGI: 7.23 µM
[22]
  GI50: 0.0642 µM
  TGI: 10.3 µM
[23]
  GI50: 0.0456 µM
  TGI: > 41.7 µM
[24]
  GI50: 0.0558 µM
  TGI: 15.9 µM
[25]
  GI50: 0.0361 µM
  TGI: 17.9 µM
[26]
  GI50: 0.255 µM
  TGI: 5.71 µM
[27]
  GI50: 0.0286 µM
  TGI: 0.321 µM
[28]
  GI50: 0.103 µM
  TGI: > 54.2 µM
[29]
  GI50: 0.892 µM
  TGI: 15.6 µM
[30]
  GI50: 0.101 µM
  TGI: > 47 µM
[31]
  GI50: 0.041 µM
  TGI: 14.7 µM
[32]
  GI50: 0.0267 µM
  TGI: 4.9 µM
[33]
  GI50: 0.0485 µM
  TGI: > 100 µM
[34]
  GI50: 0.0426 µM
  TGI: 9.8 µM
[35]
  GI50: 3.01 µM
  TGI: 60 µM
[36]
  GI50: 0.294 µM
  TGI: 28 µM
[37]
  GI50: 0.148 µM
  TGI: > 100 µM
[38]
  GI50: 0.0526 µM
  TGI: > 43.9 µM
[39]
  GI50: 0.0581 µM
  TGI: 22 µM
[40]
  GI50: 0.0235 µM
  TGI: 0.0771 µM
[41]
  GI50: 0.715 µM
  TGI: > 78.3 µM
[42]
  GI50: 0.0294 µM
  TGI: 0.363 µM
[43]
  GI50: 0.0415 µM
  TGI: 0.799 µM
[44]
  GI50: 0.0829 µM
  TGI: 29.2 µM
[45]
  GI50: 3.64 µM
  TGI: 72.3 µM
[46]
  GI50: 0.068 µM
  TGI: 1.19 µM
[47]
  GI50: 0.35 µM
  TGI: > 50.6 µM
[48]
  GI50: 0.117 µM
  TGI: 14.3 µM
[49]
  GI50: 0.0541 µM
  TGI: 35.1 µM
[50]
  GI50: 0.025 µM
  TGI: 3.42 µM
[51]
  GI50: 0.0383 µM
  TGI: > 63.4 µM
[52]
  GI50: 0.0497 µM
  TGI: > 100 µM
[53]
  GI50: 0.0447 µM
  TGI: > 87.2 µM
[54]
  GI50: 3.11 µM
  TGI: 31.3 µM
[55]
  GI50: 0.0612 µM
  TGI: 16.2 µM
[56]
  GI50: 4.48 µM
  TGI: 79.6 µM
[57]
  GI50: 0.0399 µM
  TGI: 18.7 µM
[58]
  GI50: 0.102 µM
  TGI: 14.1 µM

## Cc1ccc(-c2cc(O)c(-c3ccc(C)cc3C)cc2O)c(C)c1
[1]
  GI50: 7.65 µM
  TGI: 21.2 µM
[2]
  GI50: 5.32 µM
  TGI: 18 µM
[3]
  GI50: 3.8 µM
  TGI: 21.6 µM
[4]
  GI50: 8.17 µM
  TGI: 23 µM
[5]
  GI50: 7.56 µM
  TGI: 26.4 µM
[6]
  GI50: 3.41 µM
  TGI: 34.3 µM
[7]
  GI50: 3.65 µM
  TGI: > 100 µM
[8]
  GI50: 10.2 µM
  TGI: 24.6 µM
[9]
  GI50: 11.2 µM
  TGI: 28.2 µM
[10]
  GI50: 5.45 µM
  TGI: 37.3 µM
[11]
  GI50: 9.37 µM
  TGI: 21.9 µM
[12]
  GI50: 1.17 µM
  TGI: 13.7 µM
[13]
  GI50: 0.54 µM
  TGI: 18.9 µM
[14]
  GI50: 10.3 µM
  TGI: > 100 µM
[15]
  GI50: 11.2 µM
  TGI: 25.9 µM
[16]
  GI50: 5.44 µM
  TGI: 28.9 µM
[17]
  GI50: 12.7 µM
  TGI: 61.9 µM
[18]
  GI50: 4.73 µM
  TGI: 17.1 µM
[19]
  GI50: 8.25 µM
  TGI: 39 µM
[20]
  GI50: 5.1 µM
  TGI: > 100 µM
[21]
  GI50: 8.2 µM
  TGI: 26.8 µM
[22]
  GI50: 1.92 µM
  TGI: 17.2 µM
[23]
  GI50: 6.58 µM
  TGI: 19.9 µM
[24]
  GI50: 12.9 µM
  TGI: 28.2 µM
[25]
  GI50: 3.74 µM
  TGI: 23.1 µM
[26]
  GI50: 3.94 µM
  TGI: 21 µM
[27]
  GI50: 6.98 µM
  TGI: 45.1 µM
[28]
  GI50: 6.23 µM
  TGI: > 100 µM
[29]
  GI50: 3.11 µM
  TGI: 19.2 µM
[30]
  GI50: 7.43 µM
  TGI: 26.2 µM
[31]
  GI50: 0.923 µM
  TGI: 15.2 µM
[32]
  GI50: 4.67 µM
  TGI: 16.3 µM
[33]
  GI50: 4.5 µM
  TGI: 32.9 µM
[34]
  GI50: 7.17 µM
  TGI: 22.4 µM
[35]
  GI50: 4.27 µM
  TGI: 18.5 µM
[36]
  GI50: 18 µM
  TGI: 33.5 µM
[37]
  GI50: 4.04 µM
  TGI: 22.2 µM
[38]
  GI50: 3.95 µM
  TGI: 57.1 µM
[39]
  GI50: 4.93 µM
  TGI: 55 µM
[40]
  GI50: 5.6 µM
  TGI: 19.7 µM
[41]
  GI50: 6.97 µM
  TGI: 30.6 µM
[42]
  GI50: 6.96 µM
  TGI: 36.1 µM
[43]
  GI50: 10.7 µM
  TGI: 23.2 µM
[44]
  GI50: 15.4 µM
  TGI: 30.1 µM
[45]
  GI50: 10.8 µM
  TGI: 25.5 µM
[46]
  GI50: 1.11 µM
  TGI: 10.2 µM
[47]
  GI50: 11 µM
  TGI: 27.3 µM
[48]
  GI50: 5.38 µM
  TGI: 18.8 µM
[49]
  GI50: 10.9 µM
  TGI: 30.9 µM
[50]
  GI50: 5.46 µM
  TGI: 19.7 µM
[51]
  GI50: 3.57 µM
  TGI: 74.9 µM
[52]
  GI50: 5.64 µM
  TGI: 18.5 µM
[53]
  GI50: 5.24 µM
  TGI: 42.9 µM
[54]
  GI50: 11.7 µM
  TGI: 42.2 µM
[55]
  GI50: 2.32 µM
  TGI: 17.3 µM
[56]
  GI50: 5.81 µM
  TGI: 19.1 µM
[57]
  GI50: 4.23 µM
  TGI: 19.8 µM
[58]
  GI50: 4.96 µM
  TGI: 22.4 µM
